# From patent US20230303672A1, “METASTATIC CANCER TREATMENT OR PREVENTION” (OXFORD BROOKES UNIVERSITY, priority 2020, published 2023)
# What was measured:
# [1] = test system: HPA-positive BC cells binding to endothelial cells; conditions: incubating cells with HPA or BSA-GalNAc; 'It has been shown'; cited from earlier work
# [2] = test system: MCF7 (metastatic) cells adhering to endothelial cells; test: Endothelial static adhesion assay with or without antibodies and peptides; type: cell-based; conditions: peptide and corresponding peptide conjugate; compared to BT474 (non-metastatic) cells; 12 replicates; FIG. 15
# Description: MCF7 and HUVEC cells were grown in 24 well cell culture plates to 70% confluency the cells were treated with Dharmafect™ transfection reagent and 5 uM of plectin siRNAs or scrambled negative control for 24 hrs. Some HUVEC and MCF7 cells were non-treated. HUVEC cells were activated by treating with 10 ug/ml TNFa in complete medium for 2 hrs at 37° C., 5% CO2. MCF7 breast cancer cells were grown in T75 flasks until 70% confluency and treated with 10 mg/ml HTPS in complete medium for 2 hrs at 37° C., 5% CO2. HTPS was removed and cells were washed with 10 ml of PBS 5 times until the wash ran clear. Cells were scraped and counted. 20,000 cells/ml was prepared. MCF7 cells were treated with either 500 ul of EVs isolated using the extraction method outlined above, or 500 ul of PBS for 10 mins at RT. EVs or PBS was removed and 1 ml of MCF7 cells were added to HUVEC cells and incubated at 37° C., 5% CO2 for 10 mins, before cells were removed and wells gently washed with warmed PBS to remove any unbound cells. Wells were then fixed with 4% PFA for 10 mins at RT. Fixative was removed and the wells washed 3 times with PBS and then coverslips were mounted using fluoromount. Total adhered cells per coverslip were counted.
# This was as above but using 1/1000 of stock antibodies and peptides stated below.
# [3] = test system: MCF7 breast cancer cell adhesion to endothelial cells (HUVEC); test: Endothelial static adhesion assay with recombinant plectin; type: cell-based; conditions: MCF7 treated with 0.1 ug/ml recombinant plectin for 10 mins, compared to untreated, FIG. 6
# Description: Coverslips with activated endothelial cells were prepared as above. MCF7 breast cancer cells were grown in T75 flasks until 70% confluency and treated with 10 mg/ml HTPS in complete medium for 2 hrs at 37° C., 5% CO2. HTPS was removed and cells were washed with 10 ml of PBS 5 times until the wash ran clear. Cells were scraped and counted. 20,000 cells/ml was prepared. MCF7 cells were treated with either 0.1 ug/ml recombinant plectin, (2b Scientific SKU RPC754Hu01 (residues Asp 175-Pro 400 (SEQ ID NO: 1) of human plectin Uniprot ID Q15149, corresponding to the actin-binding domain), in PBS or PBS for 10 mins at RT. Recombinant plectin or PBS were removed from cells and 20,000 cells/ml of MCF7 cells were added per well and incubated for 10 mins, cells were removed and wells gently washed with warmed PBS to remove any unbound cells. Wells were then fixed with 4% PFA for 10 mins at RT. Fixative was removed and the wells washed 3 times with PBS and then coverslips were mounted using fluoromount. Total adhered cells per coverslip were counted.
# Sterilised 13 mm D glass coverslips were placed in wells of 24 well plate and 100,000 HUVEC cells were seeded. Cells were incubated at 37° C. with 5% CO2 atmosphere until cells became a monolayer. HUVEC cells were activated by treating with 10 ug/ml TNFa in complete medium for 2 hrs at 37° C., 5% CO2.
molecule,measurement,setting,value
BSA-GalNAc: GalNAc sugar conjugated to BSA,BC cell binding to endothelial cells,[1],inhibits cells binding
AVIYGGVQ [SEQ7],MCF7 (metastatic) cells binding to endothelial cells (peptide),[2],specifically reduces MCF7 (metastatic) cells binding to endothelial cells in a concentration dependant manner
"recombinant plectin: 2b Scientific RPC754Hu01, residues Asp 175-Pro 400 (SEQ ID NO: 1) of human plectin, the actin-binding domain (protein, listed as Homo sapiens) DERDRVQKKTFTKWVNKHLIKAQRHISDLYEDLRDGHNLISLLEVLSGDSLPREKGRMRFHKLQNVQIALDYLRHRQVKLVNIRNDDIADGNPKLTLGLIWTIILHFQISDIQVSGQSEDMTAKEKLLLWSQRMVEGYQGLRCDNFTSSWRDGRLFNAIIHRHKPLLIDMNKVYRQTNLENLDQAFSVAERDLGVTRLLDPEDVDVPQPDEKSIITYVSSLYDAMP",Cell adhesion of MCF7 to endothelial cells,[3],significantly decreases
same,Cell adhesion of MCF7 to endothelial cells,[3]; listed as recombinant plectin fragment,significantly reduced
